Assay results: ChEMBL document CHEMBL3885881, “DrugMatrix”

Organism: Rattus norvegicus
Test: DrugMatrix - Regimen: Daily Repeat
Assay type: toxicity, organism-based, Sprague-Dawley
Parameters: regimen Daily Repeat, gender Male, age 6-8 weeks
Details: in vivo, po, route oral GAVAGE, dose level High, vehicle 100 % WATER; for BASOPHIL / EOSINOPHIL / ERYTHROCYTE COUNT / HEMATOCRIT / HEMOGLOBIN / LEUKOCYTE COUNT / LYMPHOCYTE / MEAN CORPUSCULAR HEMOGLOBIN / MEAN CORPUSCULAR HEMOGLOBIN CONCENTRATION / MEAN CORPUSCULAR VOLUME / MONOCYTE / NEUTROPHIL / PLATELET COUNT / ABSOLUTE BASOPHIL / ABSOLUTE EOSINOPHIL / ABSOLUTE LYMPHOCYTE / ABSOLUTE MONOCYTE / ABSOLUTE SEGMENTED NEUTROPHIL / NUCLEATED RED BLOOD CELLS: tissue Blood; for ALANINE AMINOTRANSFERASE / ALBUMIN / ALKALINE PHOSPHATASE / ASPARTATE AMINOTRANSFERASE / BLOOD UREA NITROGEN / CARBON DIOXIDE / CHLORIDE / CHOLESTEROL / CREATINE PHOSPHOKINASE / CREATININE / GLUCOSE / LACTATE DEHYDROGENASE / LIPASE / PHOSPHORUS / POTASSIUM / SODIUM / TOTAL BILIRUBIN / TOTAL PROTEIN / URIC ACID: tissue Plasma

## COCCc1ccc(OCC(O)CNC(C)C)cc1 (centres undefined) [METOPROLOL]
120 mg/kg, 120 h, time 5 day
  BASOPHIL: 0.67%
  EOSINOPHIL: 4.2%
  ERYTHROCYTE COUNT: 7.04 x10E6/uL
  HEMATOCRIT: 45.37%
  HEMOGLOBIN: 14.97 G/DL
  LEUKOCYTE COUNT: 9.83 x10E3/uL
  LYMPHOCYTE: 70.57%
  MEAN CORPUSCULAR HEMOGLOBIN: 21.3 pg
  MEAN CORPUSCULAR HEMOGLOBIN CONCENTRATION: 33 G/DL
  MEAN CORPUSCULAR VOLUME: 64.57 fL
  MONOCYTE: 2.6%
  NEUTROPHIL: 21.47%
  PLATELET COUNT: 1018.67 x10E3/uL
  ALANINE AMINOTRANSFERASE: 28.67 u/L
  ALBUMIN: 3.9 G/DL
  ALKALINE PHOSPHATASE: 427.33 u/L
  ASPARTATE AMINOTRANSFERASE: 68.67 u/L
  BLOOD UREA NITROGEN: 16.33 mg/dL
  CARBON DIOXIDE: 38.33 mmol/L
  CHLORIDE: 106.67 MEQ/L
  CHOLESTEROL: 62.33 mg/dL
  CREATINE PHOSPHOKINASE: 168 u/L
  CREATININE: 0.4 mg/dL
  GLUCOSE: 168 mg/dL
  LACTATE DEHYDROGENASE: 97 u/L
  LIPASE: 14 u/L
  PHOSPHORUS: 11.37 mg/dL
  POTASSIUM: 6.67 MEQ/L
  SODIUM: 147.67 MEQ/L
  TOTAL BILIRUBIN: 0.47 mg/dL
  TOTAL PROTEIN: 6.33 G/DL
  URIC ACID: 1.27 mg/dL
120 mg/kg, […], time 14 day
  ABSOLUTE BASOPHIL: 90 cells/µL
  ABSOLUTE EOSINOPHIL: 60 cells/µL
  ABSOLUTE LYMPHOCYTE: 10900 cells/µL
  ABSOLUTE MONOCYTE: 270 cells/µL
  BASOPHIL: 0.67%
  EOSINOPHIL: 0.43%
  ERYTHROCYTE COUNT: 6.79 x10E6/uL
  HEMATOCRIT: 41.53%
  HEMOGLOBIN: 14.17 G/DL
  LEUKOCYTE COUNT: 13.77 x10E3/uL
  LYMPHOCYTE: 78.87%
  MEAN CORPUSCULAR HEMOGLOBIN: 20.87 pg
  MEAN CORPUSCULAR HEMOGLOBIN CONCENTRATION: 34.13 G/DL
  MEAN CORPUSCULAR VOLUME: 61.17 fL
  MONOCYTE: 1.33%
  NEUTROPHIL: 17.47%
  PLATELET COUNT: 1228.67 x10E3/uL
  ALANINE AMINOTRANSFERASE: 37 u/L
  ALBUMIN: 3.63 G/DL
  ALKALINE PHOSPHATASE: 379.33 u/L
  ASPARTATE AMINOTRANSFERASE: 68.67 u/L
  BLOOD UREA NITROGEN: 17.67 mg/dL
  CARBON DIOXIDE: 40.67 mmol/L
  CHLORIDE: 107.33 MEQ/L
  CHOLESTEROL: 51 mg/dL
  CREATINE PHOSPHOKINASE: 304.67 u/L
  CREATININE: 0.37 mg/dL
  GLUCOSE: 183.33 mg/dL
  LACTATE DEHYDROGENASE: 123.33 u/L
  LIPASE: 10.67 u/L
  PHOSPHORUS: 9.23 mg/dL
  POTASSIUM: 6.17 MEQ/L
  SODIUM: 144 MEQ/L
  TOTAL BILIRUBIN: 0.4 mg/dL
  TOTAL PROTEIN: 5.9 G/DL
  URIC ACID: 0.17 mg/dL
1200 mg/kg, 72 h, time 3 day
  ABSOLUTE BASOPHIL: 0 CELLS/uL
  ABSOLUTE EOSINOPHIL: 286.33 CELLS/uL
  ABSOLUTE LYMPHOCYTE: 11270.67 CELLS/uL
  ABSOLUTE MONOCYTE: 0 CELLS/uL
  ABSOLUTE SEGMENTED NEUTROPHIL: 909.67 CELLS/uL
  BASOPHIL: 0%
  EOSINOPHIL: 2.33%
  ERYTHROCYTE COUNT: 5.22 x10E6/uL
  HEMATOCRIT: 33.73%
  HEMOGLOBIN: 12.8 G/DL
  LEUKOCYTE COUNT: 12.47 x10E3/uL
  LYMPHOCYTE: 90.33%
  MEAN CORPUSCULAR HEMOGLOBIN: 24.57 pg
  MEAN CORPUSCULAR HEMOGLOBIN CONCENTRATION: 37.93 G/DL
  MEAN CORPUSCULAR VOLUME: 64.7 fL
  MONOCYTE: 0%
  NEUTROPHIL: 7.33%
  NUCLEATED RED BLOOD CELLS: 0 /100WBC
  PLATELET COUNT: 1290.67 x10E3/uL
  ALANINE AMINOTRANSFERASE: 53.67 u/L
  ALBUMIN: 3.87 G/DL
  ALKALINE PHOSPHATASE: 394 u/L
  ASPARTATE AMINOTRANSFERASE: 71 u/L
  BLOOD UREA NITROGEN: 17.33 mg/dL
  CARBON DIOXIDE: 22.33 mmol/L
  CHLORIDE: 107.33 MEQ/L
  CHOLESTEROL: 61.67 mg/dL
  CREATINE PHOSPHOKINASE: 205.67 u/L
  CREATININE: 0.14 mg/dL
  GLUCOSE: 163.67 mg/dL
  LACTATE DEHYDROGENASE: 229 u/L
  LIPASE: 8 u/L
  PHOSPHORUS: 13.37 mg/dL
  POTASSIUM: 7.13 MEQ/L
  SODIUM: 143.6 MEQ/L
  TOTAL BILIRUBIN: 0.2 mg/dL
  TOTAL PROTEIN: 5.57 G/DL
  URIC ACID: 1.77 mg/dL
1200 mg/kg, 120 h, time 5 day
  ABSOLUTE BASOPHIL: 0 CELLS/uL
  ABSOLUTE EOSINOPHIL: 118 CELLS/uL
  ABSOLUTE LYMPHOCYTE: 10653.33 CELLS/uL
  ABSOLUTE MONOCYTE: 40.33 CELLS/uL
  ABSOLUTE SEGMENTED NEUTROPHIL: 1388.33 CELLS/uL
  BASOPHIL: 0%
  EOSINOPHIL: 1%
  ERYTHROCYTE COUNT: 5.92 x10E6/uL
  HEMATOCRIT: 35.9%
  HEMOGLOBIN: 13.47 G/DL
  LEUKOCYTE COUNT: 12.2 x10E3/uL
  LYMPHOCYTE: 87.33%
  MEAN CORPUSCULAR HEMOGLOBIN: 22.77 pg
  MEAN CORPUSCULAR HEMOGLOBIN CONCENTRATION: 37.5 G/DL
  MEAN CORPUSCULAR VOLUME: 60.63 fL
  MONOCYTE: 0.33%
  NEUTROPHIL: 11.33%
  NUCLEATED RED BLOOD CELLS: 0 /100WBC
  PLATELET COUNT: 1269 x10E3/uL
  ALANINE AMINOTRANSFERASE: 41.67 u/L
  ALBUMIN: 4 G/DL
  ALKALINE PHOSPHATASE: 311.67 u/L
  ASPARTATE AMINOTRANSFERASE: 79 u/L
  BLOOD UREA NITROGEN: 16 mg/dL
  CARBON DIOXIDE: 25 mmol/L
  CHLORIDE: 102.33 MEQ/L
  CHOLESTEROL: 50.67 mg/dL
  CREATINE PHOSPHOKINASE: 364.33 u/L
  CREATININE: 0.21 mg/dL
  GLUCOSE: 161.33 mg/dL
  LACTATE DEHYDROGENASE: 430 u/L
  LIPASE: 8 u/L
  PHOSPHORUS: 11.67 mg/dL
  POTASSIUM: 6.24 MEQ/L
  SODIUM: 141.53 MEQ/L
  TOTAL BILIRUBIN: 0.2 mg/dL
  TOTAL PROTEIN: 5.6 G/DL
  URIC ACID: 1.73 mg/dL
